From patent publication US20080009437A1, “Pharmaceutical Compositions and Method for Treating Dry Eye” (priority 2006, published 2008)
Where “and” joins values, the source holds several entries; their conditions need not be identical. Equal values may be shown once. Entries after “also recorded” stand apart in the source; their conditions may differ.

Experiments:
[1] = test system: rabbit paracentesis model; assay: Rabbit paracentesis model, overall anti-inflammatory activity; format: in vivo; conditions: 0.1%, 0.5% and 1% topical formulations; preliminary conclusions; listed as BOL-303242-X
From the text: Inflammatory processes are multidimensional in origin, and are characterized by complex cellular and molecular events involving numerous components all of which have not been identified. Prostaglandins are among these mediators and play an important role in certain forms of ocular inflammation. Paracentesis of the anterior chamber in the rabbit eye induces inflammatory reaction due to the disruption of the blood-aqueous barrier (“BAB”), which is mediated, at least in part, by prostaglandin E2 [References 1-3 below]. Intraocular or topical administration of PGE2 disrupts the BAB. [Reference 4, below] The treatment schedule adopted in this study was similar to the clinical NSAIDs (Ocufen) treatment schedule used by surgeons for patients before cataract surgery.
Each rabbit was placed in a restraint device and tagged with the alphanumeric code. The formulations were instilled (50 μl) into the conjunctival sac of both eyes 180, 120, 90 and 30 min before the first paracentesis; then 15, 30, 90 min after the first paracentesis. To perform the first paracentesis the animals were anaesthetized by intraveneous injection of 5 mg/kg Zoletil® (Virbac; 2.5 mg/kg tiletamine HCl and 2.5 mg/kg zolazepam HCl) and one drop of local anesthetic (Novesina®, Novartis) was administered to the eye. […]

[2] = test system: rabbit eye (anterior chamber paracentesis); assay: Pupillary diameter measurement, rabbit paracentesis model; format: in vivo; conditions: group mean, n=8 eyes
Procedure: (§1) Each rabbit was placed in a restraint device and tagged with the alphanumeric code. The formulations were instilled (50 μl) into the conjunctival sac of both eyes 180, 120, 90 and 30 min before the first paracentesis; then 15, 30, 90 min after the first paracentesis. To perform the first paracentesis the animals were anaesthetized by intraveneous injection of 5 mg/kg Zoletil® (Virbac; 2.5 mg/kg tiletamine HCl and 2.5 mg/kg zolazepam HCl) and one drop of local anesthetic (Novesina®, Novartis) was administered to the eye. Anterior chamber paracentesis was performed with a 26 G needle attached to a tuberculin syringe; the needle was introduced into the anterior chamber through the cornea, taking care not to damage the tissues. Two hours after the first paracentesis, the animals were sacrificed with 0.4 ml Tanax® (Intervet International B. V.) and the second paracentesis was performed. About 100 μl of aqueous humor were removed at the second paracentesis. Aqueous humor was immediately split in four aliquots and stored at −80° C. until analysis. Then both eyes were enucleated and the iris-ciliary body was carefully excised, placed in polypropylene tubes, and stored at −80° C. until analysis.
The pupillary diameter of both eyes was measured with a Castroviejo caliper 180 min and 5 min before the first paracentesis and 5 min before the second paracentesis.
(§2) Pupillary diameter, PGE2, protein, PMN, and MPO were expressed as mean±SEM. Statistical analysis was performed using one way ANOVA followed by a Newman-Keuls post hoc test. Clinical score was expressed as % of eyes and the statistical analysis was performed using Kruskal-Wallis followed by a Dunn post hoc test. P<0.05 was considered statistically significant in both cases. Prism 4 software (GraphPad Software, Inc.) was used for the analysis and graphs.

[3] = test system: PGE2 in the aqueous humor; assay: Prostaglandin E2 (PGE2) measurement in aqueous humor; format: in vivo, Rabbit; conditions: individual eye sample, second paracentesis
[4] = test system: leukocytes (PMN) in aqueous humor; assay: Leukocytes (PMN) measurement in aqueous humor; format: in vivo, Rabbit; conditions: second paracentesis; for PMN (number/μl) in aqueous humor, raw data: individual eye sample; for PMN in aqueous humor, Mean (number/μl): group mean
Procedure: as §1
For the determination of the number of leukocytes we used a haemocytometer (Improved Neubauer Chamber; Brigth-line, Hausser Scientific) and a Polyvar 2 microscope (Reichert-Jung).
as §2

Row | SMILES | Anti-inflammatory activity in rabbit paracentesis model (conclusion) [1] | Mean (mm) Δ(T3-T1) pupillary diameter ([2]; 0.1% topical formulation) | Mean (mm) Δ(T3-T1) pupillary diameter ([2]; 0.5% topical formulation) | Mean (mm) Δ(T3-T1) pupillary diameter ([2]; 1% topical formulation) | PGE2 (ng/ml) in aqueous humor, raw data ([3]; 0.1% topical formulation) | PGE2 (ng/ml) in aqueous humor, raw data ([3]; 0.5% topical formulation) | PGE2 (ng/ml) in aqueous humor, raw data ([3]; 1% topical formulation) | PMN (number/μl) in aqueous humor, raw data ([4]; 0.1% topical formulation) | PMN (number/μl) in aqueous humor, raw data ([4]; 0.5% topical formulation) | PMN (number/μl) in aqueous humor, raw data ([4]; 1% topical formulation) | PMN in aqueous humor, Mean (number/μl) ([4]; 0.1% topical formulation) | Mean (mm) Δ(T3-T1) pupillary diameter ([2]; 0.03% topical formulation) | PGE2 (ng/ml) in aqueous humor, raw data ([3]; 0.03% topical formulation) | PMN in aqueous humor, Mean (number/μl) ([4]; 0.03% topical formulation) | PMN (number/μl) in aqueous humor, raw data ([4]; 0.03% topical formulation)
1 | Cc1ccc2c(NCC(O)(CC(C)(C)c3cc(F)cc4c3OCC4)C(F)(F)F)cccc2n1 (stereo not drawn) [BOL] | active in this model; also recorded: as effective an anti-inflammatory drug as some of the commonly accepted prior-art steroids or NSAID | −1.1 mm | −1.0 mm | −0.9 mm | 0.70 ng/mL | 0.53 ng/mL and 0.75 ng/mL and 0.80 ng/mL | 0.50 ng/mL | 20 number/μl (4×) and 40 number/μl and 50 number/μl | 40 number/μl (2×) and 20 number/μl (3×) and 10 number/μl (3×) | 30 number/μl (3×) and 20 number/μl (3×) and 40 number/μl (2×) |  |  |  |  | 
2 | C[C@@H]1C[C@H]2[C@@H]3CCC4=CC(=O)C=C[C@]4(C)[C@@]3(F)[C@@H](O)C[C@]2(C)[C@@]1(O)C(=O)CO [Dex, dexamethasone] |  | −0.8 mm |  |  | 2.10 ng/mL and 1.30 ng/mL |  |  | 20 number/μl (3×) and 50 number/μl and 40 number/μl and 30 number/μl |  |  | 30.000 number/μl |  |  |  | 
3 | CC(C(=O)O)c1ccc(-c2ccccc2)c(F)c1 (stereo not drawn) [F, flurbiprofen] |  |  |  |  |  |  |  |  |  |  |  | −0.9 mm | 0.75 ng/mL and 0.85 ng/mL and 0.93 ng/mL and 0.61 ng/mL | 30.000 number/μl | 50 number/μl and 40 number/μl (2×) and 20 number/μl (2×) and 10 number/μl and 30 number/μl
4 | CCOC(=O)O[C@]1(C(=O)OCCl)CC[C@H]2[C@@H]3CCC4=CC(=O)C=C[C@]4(C)[C@H]3[C@@H](O)C[C@@]21C [LE, loteprednol etabonate] |  |  | −0.9 mm |  |  | ^2N/D^ and 0.23 ng/ml and 0.68 ng/ml and 1.10 ng/ml |  |  | 40 number/μl (2×) and 20 number/μl (3×) and 30 number/μl |  |  |  |  |  | 
